Test results taken from PubChem BioAssay (NCI).
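All cell lines were grown in 96-well plates and treated with compound for 48 hours. At the TGI there is no net growth.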

Assays:
Assay in all cases: NCI anticancer screen, dose series, 48 h
786-0 renal = test system: 786-0 renal
A549 NSCLC = test system: A549 NSCLC
ACHN renal = test system: ACHN renal
BT-549 breast = test system: BT-549 breast
CAKI-1 renal = test system: CAKI-1 renal
COLO 205 colon = test system: COLO 205 colon
EKVX NSCLC = test system: EKVX NSCLC
HCC-2998 colon = test system: HCC-2998 colon
HCT-116 colon = test system: HCT-116 colon
HCT-15 colon = test system: HCT-15 colon
HL-60(TB) leukemia = test system: HL-60(TB) leukemia
HOP-62 NSCLC = test system: HOP-62 NSCLC
HOP-92 NSCLC = test system: HOP-92 NSCLC
HS 578T breast = test system: HS 578T breast
HT29 colon = test system: HT29 colon
IGROV1 ovarian = test system: IGROV1 ovarian
K-562 leukemia = test system: K-562 leukemia
KM12 colon = test system: KM12 colon
LOX IMVI melanoma = test system: LOX IMVI melanoma
M14 melanoma = test system: M14 melanoma
MALME-3M melanoma = test system: MALME-3M melanoma
MCF7 breast = test system: MCF7 breast
MDA-MB-231 breast = test system: MDA-MB-231 breast
MDA-MB-435 = test system: MDA-MB-435
MDA-N = test system: MDA-N
MOLT-4 leukemia = test system: MOLT-4 leukemia
NCI-H226 lung = test system: NCI-H226 lung
NCI-H23 lung = test system: NCI-H23 lung
NCI-H460 lung = test system: NCI-H460 lung
NCI-H522 lung = test system: NCI-H522 lung
NCI/ADR-RES ovarian = test system: NCI/ADR-RES ovarian
OVCAR-4 ovarian = test system: OVCAR-4 ovarian
OVCAR-5 ovarian = test system: OVCAR-5 ovarian
OVCAR-8 ovarian = test system: OVCAR-8 ovarian
PC-3 prostate = test system: PC-3 prostate
RPMI-8226 leukemia = test system: RPMI-8226 leukemia
RXF 393 renal = test system: RXF 393 renal
SF-268 CNS = test system: SF-268 CNS
SF-295 CNS = test system: SF-295 CNS
SF-539 CNS = test system: SF-539 CNS
SK-MEL-2 melanoma = test system: SK-MEL-2 melanoma
SK-MEL-5 melanoma = test system: SK-MEL-5 melanoma
SK-OV-3 ovarian = test system: SK-OV-3 ovarian
SN12C renal = test system: SN12C renal
SNB-19 CNS = test system: SNB-19 CNS
SNB-75 CNS = test system: SNB-75 CNS
SR leukemia = test system: SR leukemia
SW-620 colon = test system: SW-620 colon
T-47D breast = test system: T-47D breast
TK-10 renal = test system: TK-10 renal
U251 CNS = test system: U251 CNS
UACC-257 melanoma = test system: UACC-257 melanoma
UACC-62 melanoma = test system: UACC-62 melanoma
UO-31 renal = test system: UO-31 renal
CCRF-CEM leukemia = test system: CCRF-CEM leukemia
DU-145 prostate = test system: DU-145 prostate
SK-MEL-28 melanoma = test system: SK-MEL-28 melanoma

## COc1ccc2c(c1)CN1C(=N2)CSC1c1cc([N+](=O)[O-])ccc1Cl (configuration not stated)
786-0 renal
  TGI: > 100 µM
A549 NSCLC
  TGI: > 100 µM
ACHN renal
  TGI: > 100 µM
BT-549 breast
  TGI: > 100 µM
CAKI-1 renal
  TGI: > 100 µM
COLO 205 colon
  TGI: 92.4 µM
EKVX NSCLC
  TGI: > 100 µM
HCC-2998 colon
  TGI: 58.7 µM
HCT-116 colon
  TGI: > 100 µM
HCT-15 colon
  TGI: > 100 µM
HL-60(TB) leukemia
  TGI: 45.8 µM
HOP-62 NSCLC
  TGI: > 100 µM
HOP-92 NSCLC
  TGI: > 100 µM
HS 578T breast
  TGI: > 100 µM
HT29 colon
  TGI: 75.8 µM
IGROV1 ovarian
  TGI: > 100 µM
K-562 leukemia
  TGI: > 100 µM
KM12 colon
  TGI: > 100 µM
LOX IMVI melanoma
  TGI: > 100 µM
M14 melanoma
  TGI: > 100 µM
MALME-3M melanoma
  TGI: > 100 µM
MCF7 breast
  TGI: > 100 µM
MDA-MB-231 breast
  TGI: > 100 µM
MDA-MB-435
  TGI: > 100 µM
MDA-N
  TGI: > 100 µM
MOLT-4 leukemia
  TGI: > 100 µM
NCI-H226 lung
  TGI: > 100 µM
NCI-H23 lung
  TGI: > 100 µM
NCI-H460 lung
  TGI: > 100 µM
NCI-H522 lung
  TGI: > 100 µM
NCI/ADR-RES ovarian
  TGI: > 100 µM
OVCAR-4 ovarian
  TGI: > 100 µM
OVCAR-5 ovarian
  TGI: > 100 µM
OVCAR-8 ovarian
  TGI: > 100 µM
PC-3 prostate
  TGI: > 100 µM
RPMI-8226 leukemia
  TGI: 72.3 µM
RXF 393 renal
  TGI: > 100 µM
SF-268 CNS
  TGI: > 100 µM
SF-295 CNS
  TGI: > 100 µM
SF-539 CNS
  TGI: 98.2 µM
SK-MEL-2 melanoma
  TGI: > 100 µM
SK-MEL-5 melanoma
  TGI: > 100 µM
SK-OV-3 ovarian
  TGI: > 100 µM
SN12C renal
  TGI: > 100 µM
SNB-19 CNS
  TGI: > 100 µM
SNB-75 CNS
  TGI: > 100 µM
SR leukemia
  TGI: > 100 µM
SW-620 colon
  TGI: > 100 µM
T-47D breast
  TGI: > 100 µM
TK-10 renal
  TGI: > 100 µM
U251 CNS
  TGI: > 100 µM
UACC-257 melanoma
  TGI: > 100 µM
UACC-62 melanoma
  TGI: 57.5 µM
UO-31 renal
  TGI: > 100 µM

## CC1(C)c2ccccc2C(=O)C12CCC(=O)CC2
786-0 renal
  TGI: > 100 µM
A549 NSCLC
  TGI: > 100 µM
ACHN renal
  TGI: > 100 µM
BT-549 breast
  TGI: > 100 µM
CAKI-1 renal
  TGI: > 100 µM
CCRF-CEM leukemia
  TGI: > 100 µM
COLO 205 colon
  TGI: > 100 µM
DU-145 prostate
  TGI: > 100 µM
EKVX NSCLC
  TGI: > 100 µM
HCC-2998 colon
  TGI: > 100 µM
HCT-116 colon
  TGI: > 100 µM
HCT-15 colon
  TGI: > 100 µM
HL-60(TB) leukemia
  TGI: > 100 µM
HOP-62 NSCLC
  TGI: > 100 µM
HS 578T breast
  TGI: > 100 µM
HT29 colon
  TGI: > 100 µM
IGROV1 ovarian
  TGI: > 100 µM
K-562 leukemia
  TGI: > 100 µM
KM12 colon
  TGI: > 100 µM
LOX IMVI melanoma
  TGI: > 100 µM
M14 melanoma
  TGI: > 100 µM
MALME-3M melanoma
  TGI: > 100 µM
MCF7 breast
  TGI: > 100 µM
MDA-MB-231 breast
  TGI: > 100 µM
MDA-N
  TGI: > 100 µM
MOLT-4 leukemia
  TGI: > 100 µM
NCI-H226 lung
  TGI: > 100 µM
NCI-H23 lung
  TGI: > 100 µM
NCI-H460 lung
  TGI: > 100 µM
NCI-H522 lung
  TGI: > 100 µM
NCI/ADR-RES ovarian
  TGI: > 100 µM
OVCAR-4 ovarian
  TGI: > 100 µM
OVCAR-5 ovarian
  TGI: > 100 µM
OVCAR-8 ovarian
  TGI: > 100 µM
PC-3 prostate
  TGI: > 100 µM
RXF 393 renal
  TGI: 96 µM
SF-268 CNS
  TGI: > 100 µM
SF-295 CNS
  TGI: > 100 µM
SF-539 CNS
  TGI: > 100 µM
SK-MEL-2 melanoma
  TGI: > 100 µM
SK-MEL-28 melanoma
  TGI: > 100 µM
SK-OV-3 ovarian
  TGI: > 100 µM
SN12C renal
  TGI: > 100 µM
SNB-19 CNS
  TGI: > 100 µM
SNB-75 CNS
  TGI: > 100 µM
SR leukemia
  TGI: > 100 µM
SW-620 colon
  TGI: > 100 µM
T-47D breast
  TGI: > 100 µM
TK-10 renal
  TGI: > 100 µM
U251 CNS
  TGI: > 100 µM
UACC-257 melanoma
  TGI: > 100 µM
UACC-62 melanoma
  TGI: > 100 µM
UO-31 renal
  TGI: > 100 µM
